Measurements taken from patent US10829719B2, “Sodium methyl glycine-N,N-diacetic acid compound, process to prepare it and use thereof” (NOURYON CHEMICALS INTERNATIONAL B.V., priority 2017, dated 2020).

Legend:
[1] = Dissolution rate of granules in deionized water monitored by conductivity; assay type: physicochemical; conditions: for time needed (s) to reach 75% dissolved / time needed (s) to reach 90% dissolved / time needed (s) to reach 95% dissolved / time needed (s) to reach 100% dissolved: 1 gram granules in 75 gram deionized water, stirred, trisodium salt
Description: The dissolution rate of these granules was compared to the dissolution rate of the original granules that were not heat treated:
1 gram of granules was added in one shot to a stirred container filled with 75 gram deionized water, equipped with a conductivity measurement probe. The conductivity of the dispersion was monitored in time. The degree of dissolution was determined by dividing the conductivity by the value finally obtained when the sample was fully dissolved yielding a stable level of conductivity.
(The measurements were done in duplicate yielding the same result)

[2] = Free flowability and weight gain after storage in climate chamber at 40° C. and 75% relative humidity; assay type: physicochemical; conditions: mean of three dishes; for fraction free flowing (%) Original / weight gain (%) Original: non-treated sample, stored 5 days at 40° C. and 75% relative humidity; for fraction free flowing (%) Treated / weight gain (%) Treated: sample dried 4 hours at 160° C., then stored 5 days at 40° C. and 75% relative humidity
Description: The compounds obtained in Examples 1 and 3 were dried 4 hours at 160° C. Subsequently, 5 grams of each sample were distributed evenly over the bottom of a (separate) crystallization dish (diameter 10 cm) and stored for 5 days in a climate chamber at 40° C. and 75% relative humidity. As a reference also the non-treated samples, as well as a sample of Trilon M granules (Na3-MGDA solid ex BASF), were stored in the same climate chamber at the same time.
To improve reliability of the testing, three separate dishes of all samples were stored at the same conditions.
After five days the dishes were weighed and the gain in mass of the contents was determined.
To estimate the amount of material that was still free flowing, the dishes were first tapped gently and then were mounted vertically to estimate the amount of material that remained sticking on the glass surface versus the amount of granular material ending on the bottom.

SMILES | time needed (s) to reach 75% dissolved [1] [s] | time needed (s) to reach 90% dissolved [1] [s] | time needed (s) to reach 95% dissolved [1] [s] | time needed (s) to reach 100% dissolved [1] [s] | dissolution compared to type I containing granules ([1]; type III containing granules versus original, not heat treated type I granules) | fraction free flowing (%) Original [2] [%] | weight gain (%) Original [2] [%] | fraction free flowing (%) Treated [2] [%] | weight gain (%) Treated [2] [%]
CC(C(=O)[O-])N(CC(=O)[O-])CC(=O)[O-].[Na+].[Na+].[Na+] (single isomer, unassigned) [type I, methyl glycine-N,N-diacetic acid trisodium salt, reference compound] | 40 | 110 | 160 | 260 | – | – | – | – | –
CC(C(=O)[O-])N(CC(=O)[O-])CC(=O)[O-].[Na+].[Na+].[Na+] (single isomer, unassigned) [type III, methyl glycine-N,N-diacetic acid trisodium salt] | 22 | 36 | 45 | 90 | dissolve much faster | – | – | – | –
CC(C(=O)[O-])N(CC(=O)[O-])CC(=O)[O-].[Na+].[Na+].[Na+] (centres unmarked) [Example 1, Na3-MGDA] | – | – | – | – | – | 40 | 11 | 65 | 27
CC(C(=O)[O-])N(CC(=O)[O-])CC(=O)[O-].[Na+].[Na+].[Na+] (centres unmarked) [Example 3, Na3-MGDA] | – | – | – | – | – | 20 | 17 | 80 | 29
